Entries after “also recorded” stand apart in the source; their conditions may differ.
System: Col-0 wt and als7-1/swa2-2 roots
Experiment: Root growth of seedlings in a hydroponic environment supplemented with AlCl3 (pH 4.2)
Format: in vivo, Arabidopsis
Settings: for increase in root growth: pH 4.2
Experimental: Seedlings of Col-0 wt and als7-1/swa2-2 were grown for 7 d hydroponically either in the absence or presence 25 μM AlCl3 (pH 4.2), after which root tissue was collected for analysis of spermine content by HPLC. […] Seedlings of Col-0 wt and als7-1/swa2-2 were grown in a hydroponic environment either in the absence or presence of 25 μM AlCl3 (pH 4.2) with or without 25 μM spermine. After 7 d growth, root length was measured for all treatments, with mean±SE values determined from 30 roots of each. […] Seedlings of Col-0 wt were grown either in the absence or presence of 1.5 mM DEMO in a hydroponic environment supplemented with increasing concentrations of AlCl3 (pH 4.2). After 7 d, root length was measured for all treatments, with mean±SE values determined from 30 roots of each. […] Seedlings of Col-0 wt were grown hydroponically either in the absence or presence of 25 μM spermine for 5 d after which the samples were transferred to a solution with or without 25 μM AlCl3 (pH 4.2) containing either 0 or 25 μM spermine. Following 2 d of growth, root tissue was collected and treated for measurement of Al content by ICP-OES.
For all growth experiments performed, Col-0 wt and mutant seeds were surface-sterilized with household bleach and cold stratified for 4 d at 4° C. in the dark for synchronization of germination. Seeds were subsequently suspended in 0.15% (w/v) agarose and for planting on either soaked gel plates or hydroponic plates. Further description of the growth experiments can be found in Larsen, P. B., Geisler, M. J. B., Jones, C. A., Williams, K. M., and Cancel, J. D. (2005), ALS3 encodes a phloem-localized ABC transporter-like protein that is required for aluminum tolerance in Arabidopsis. Plant J. 41, 353-63. All growth analyses were done in a Percival 136LLVL plant growth chamber under a 24 hr light cycle at 20° C. Adult plants were grown in soil under a 24 hr light cycle at 20° C. in a plant growth room supplemented with Sylvania Gro-Lite® fluorescent bulbs.

NCCCNCCCCNCCCN [spermine]
root growth in the presence of Al (in words) (Col-0 wt and als7-1/swa2-2 seedlings, 25 μM spermine, 25 μM AlCl3 pH 4.2, hydroponic, 7 d): increases root growth; also recorded: substantial increase in root growth
increase in root growth (Col-0 wt, 25 μM spermine, 25 or 50 μM AlCl3, hydroponic, 7 d): ≥ 6 fold
root growth compared to untreated controls (in words) (Col-0 wt, spermine added, 25 or 50 μM AlCl3, hydroponic): remained significantly inhibited
increase in root growth (als7-1/swa2-2, 25 μM spermine, 25 or 50 μM AlCl3, hydroponic, 7 d): ≥ 6 fold
root growth in the presence of Al (in words) (als7-1/swa2-2, spermine added, 25 or 50 μM AlCl3, hydroponic): almost full restoration

— US10184129B2, “Method and compositions to promote plant growth in metal contaminated environments” (The Regents of the University of California, priority 2011, dated 2019)
